This is an account of results in patent US20080145858A1, “DETECTION AND IDENTIFICATION OF TOXICANTS BY MEASUREMENT OF GENE […]” (priority 2003, published 2008).

The test system of this series is Xenopus laevis embryos. The experiment in a line: Embryonic morphology after PMA treatment. Type of series: in vivo. As to conditions: added 21 hours after fertilization, 18° C. for 30 hours; untreated showed typical neurula. As for the experimental part: Embryos were sorted for successful cleavage to 2 cells (1.5 hours after fertilization), split into groups for subsequent treatment (triplicate treatments per each experimental group) and visually monitored for normal embryonic morphology. Rates of abnormal morphology were recorded for each group. Embryos at stage 8 were obtained after incubation of the fertilized embryos at 23° C. for 5 hours. PMA (100 ng/ml) or DMSO (0.01%, solvent used to dissolve PMA) was added to the embryos 2 hours after fertilization. […] Embryos at stage 15 were obtained after incubation of the fertilized embryos at 18° C. for 30 hours (the condition produced stage 15 embryos identical to embryos obtained at 23° C. for 10 hours). PMA or DMSO was added to the embryos 21 hours after fertilization.

Molecules are shown by their SMILES.

Turning to `CCCCCCCCCCCCCC(=O)O[C@@H]1[C@@H](C)[C@@]2(O)[C@@H](C=C(CO)C[C@@]3(O)C(=O)C(C)=C[C@@H]23)[C@@H]2C(C)(C)[C@]12OC(C)=O` [4 alpha-PMA], the “embryo morphology / developmental stage reached” value is “typical neurula morphology”.
